≈ marks a conversion by molar mass, not a printed value. Calls of active or inactive are those of the source. No cut-off for these calls is given here.
Tests used:
Listeria monocytogenes = test: Antibacterial activity against Listeria monocytogenes; type: functional, organism-based
Staphylococcus aureus = test: Antibacterial activity against methicillin-resistant Staphylococcus aureus; type: functional, organism-based
Enterococcus = test: Antibacterial activity against vancomycin-resistant Enterococcus; type: functional, organism-based
Candida albicans [1] = test: Antifungal activity against fluconazole/ITC-resistant Candida albicans ATCC 10231 measured after 48 hrs by CLSI M27-A3 protocol based method; type: functional; conditions: ATCC 10231, 48 h
Candida albicans [2] = test: Antifungal activity against fluconazole/ITC-resistant Candida albicans ATCC 64124 measured after 48 hrs by CLSI M27-A3 protocol based method; type: functional; conditions: ATCC 64124, 48 h
Candida albicans [3] = test: Antifungal activity against fluconazole/ITC-susceptible Candida albicans ATCC MYA-2876 measured after 48 hrs by CLSI M27-A3 protocol based method; type: functional; conditions: ATCC MYA-2876, 48 h
Candida albicans [4] = test: Antifungal activity against fluconazole/ITC-resistant Candida albicans ATCC 90819 measured after 48 hrs by CLSI M27-A3 protocol based method; type: functional; conditions: ATCC 90819, 48 h
Candida albicans [5] = test: Antifungal activity against fluconazole/ITC-susceptible Candida albicans ATCC MYA-2310 measured after 48 hrs by CLSI M27-A3 protocol based method; type: functional; conditions: ATCC MYA-2310, 48 h
Candida albicans [6] = test: Antifungal activity against fluconazole/ITC-resistant Candida albicans ATCC MYA-1237 measured after 48 hrs by CLSI M27-A3 protocol based method; type: functional; conditions: ATCC MYA-1237, 48 h
Candida albicans [7] = test: Antifungal activity against fluconazole/ITC-resistant Candida albicans ATCC MYA-1003 measured after 48 hrs by CLSI M27-A3 protocol based method; type: functional; conditions: ATCC MYA-1003, 48 h
Nakaseomyces glabratus = test: Antifungal activity against Candida glabrata ATCC 2001 measured after 48 hrs by CLSI M27-A3 protocol based method; type: functional; conditions: CBS 138, 48 h
Pichia kudriavzevii = test: Antifungal activity against Candida krusei ATCC 6258 measured after 48 hrs by CLSI M27-A3 protocol based method; type: functional; conditions: ATCC 6258, 48 h
Candida parapsilosis = test: Antifungal activity against Candida parapsilosis ATCC 22019 measured after 48 hrs by CLSI M27-A3 protocol based method; type: functional; conditions: Lodderomyces parapsilosis, ATCC 22019, 48 h
Aspergillus flavus = test: Antifungal activity against Aspergillus flavus ATCC MYA-3631 measured after 48 hrs by CLSI M38-A2 protocol based method; type: functional; conditions: ATCC MYA-3631, 48 h
Aspergillus nidulans = test: Antifungal activity against Aspergillus nidulans ATCC 38163 measured after 48 hrs by CLSI M38-A2 protocol based method; type: functional; conditions: ATCC 38163, 48 h
Aspergillus terreus = test: Antifungal activity against Aspergillus terreus ATCC MYA-3633 measured after 48 hrs by CLSI M38-A2 protocol based method; type: functional; conditions: ATCC MYA-3633, 48 h

| SMILES | Activity (Listeria monocytogenes) | Activity (Staphylococcus aureus) | Activity (Enterococcus) | MIC (Candida albicans [1]) [µg/mL] | MIC (Candida albicans [2]) [µg/mL] | MIC (Candida albicans [3]) [µg/mL] | MIC (Candida albicans [4]) [µg/mL] | MIC (Candida albicans [5]) [µg/mL] | MIC (Candida albicans [6]) [µg/mL] | MIC (Candida albicans [7]) [µg/mL] | MIC (Nakaseomyces glabratus) [µg/mL] | MIC (Pichia kudriavzevii) [µg/mL] | MIC (Candida parapsilosis) [µg/mL] | MIC (Aspergillus flavus) [µg/mL] | MIC (Aspergillus nidulans) [µg/mL] | MIC (Aspergillus terreus) [µg/mL] |
| --- | --- | --- | --- | --- | --- | --- | --- | --- | --- | --- | --- | --- | --- | --- | --- | --- |
| COc1ccc(N/N=C(\C)c2ccc(-c3ccc(/C(C)=N/Nc4ccc(OC)cc4)cc3)cc2)cc1 | inactive | inactive | inactive | 15.6 (≈ 32.6 µM) | 15.6 (≈ 32.6 µM) | 15.6 (≈ 32.6 µM) | 31.3 (≈ 65.4 µM) | 15.6 (≈ 32.6 µM) | 7.8 (≈ 16.3 µM) | 7.8 (≈ 16.3 µM) | 7.8 (≈ 16.3 µM) | 15.6 (≈ 32.6 µM) | > 31.3 | > 31.3 | > 31.3 | > 31.3 |
| CC(C)(C)N/N=C/c1ccc(-c2ccc(/C=N/NC(C)(C)C)cc2)cc1 | inactive | inactive | inactive | 31.3 (≈ 89.3 µM) | 31.3 (≈ 89.3 µM) | > 31.3 | > 31.3 | 31.3 (≈ 89.3 µM) | 31.3 (≈ 89.3 µM) | > 31.3 | 15.6 (≈ 44.5 µM) | 31.3 (≈ 89.3 µM) | > 31.3 | > 31.3 | 31.3 (≈ 89.3 µM) | > 31.3 |
| N#Cc1ccc(N/N=C/c2ccc(-c3ccc(/C=N/Nc4ccc(C#N)cc4)cc3)cc2)cc1 | inactive | inactive | inactive | > 31.3 | > 31.3 | > 31.3 | > 31.3 | > 31.3 | > 31.3 | 31.3 (≈ 71.1 µM) | > 31.3 | > 31.3 | > 31.3 | > 31.3 | > 31.3 | 31.3 (≈ 71.1 µM) |
| Fc1ccccc1N/N=C/c1ccc(-c2ccc(/C=N/Nc3ccccc3F)cc2)cc1 | inactive | inactive | inactive | 3.9 (≈ 9.14 µM) | > 31.3 | 15.6 (≈ 36.6 µM) | 31.3 (≈ 73.4 µM) | > 31.3 | > 31.3 | 15.6 (≈ 36.6 µM) | > 31.3 | 3.9 (≈ 9.14 µM) | > 31.3 | > 31.3 | 31.3 (≈ 73.4 µM) | > 31.3 |
| Fc1cc(F)cc(N/N=C/c2ccc(-c3cccc(/C=N/Nc4cc(F)cc(F)c4)c3)cc2)c1 | inactive | inactive | inactive | 3.9 (≈ 8.43 µM) | 15.6 (≈ 33.7 µM) | 31.3 (≈ 67.7 µM) | > 31.3 | > 31.3 | 31.3 (≈ 67.7 µM) | 31.3 (≈ 67.7 µM) | > 31.3 | > 31.3 | > 31.3 | > 31.3 | > 31.3 | > 31.3 |
| Fc1cccc(N/N=C/c2ccc(-c3cccc(/C=N/Nc4cccc(F)c4F)c3)cc2)c1F | inactive | inactive | inactive | > 31.3 | > 31.3 | > 31.3 | > 31.3 | > 31.3 | > 31.3 | > 31.3 | > 31.3 | > 31.3 | > 31.3 | > 31.3 | > 31.3 | > 31.3 |
| Fc1cc(F)cc(N/N=C/c2ccc(-c3ccc(/C=N/Nc4cc(F)cc(F)c4)cc3)cc2)c1 | inactive | inactive | inactive | 15.6 (≈ 33.7 µM) | > 31.3 | > 31.3 | > 31.3 | > 31.3 | > 31.3 | > 31.3 | > 31.3 | > 31.3 | > 31.3 | > 31.3 | > 31.3 | > 31.3 |
| Clc1ccc(N/N=C/c2ccc(-c3cccc(/C=N/Nc4ccc(Cl)cc4)c3)cc2)cc1 | inactive | inactive | inactive | 7.8 (≈ 17 µM) | 7.8 (≈ 17 µM) | 15.6 (≈ 34 µM) | 15.6 (≈ 34 µM) | 31.3 (≈ 68.1 µM) | 15.6 (≈ 34 µM) | 3.9 (≈ 8.49 µM) | 15.6 (≈ 34 µM) | 31.3 (≈ 68.1 µM) | 3.9 (≈ 8.49 µM) | > 31.3 | > 31.3 | > 31.3 |
